Assay [1] has as its system fibroblast growth factor-induced corneal angiogenesis. The settings on record: rats; cited from earlier work.
The subject of assay [2] is 3T3/E/H+TGF-a(T) (NIH 3T3 cells expressing EGFR/HER2 chimera and TGF-a). Nature of the assay: SRB Assay 1: 3T3/E/H+TGF-a(T) Cell Growth SRB Assay. In kind it is cell-based. The settings on record: Mus musculus, NIH3T3, SRB Readout.
Protocol: Sulforhodamine B (SRB) Growth Assays
The assays are carried out as follows:
0.4% SRB in 1% acetic acid
compound in DMSO (100 mM or less stock solution)
Cell Line and Growth Medium:
Trypsinize cells as usual. Transfer 100 μl of cell suspension to 10 ml of isotone. Count cells with the Coulter Counter.
Gently shake plates to allow for uniform attachment of the cells.
In 96 well-round bottom plate, add 125 μl of growth medium to columns 3-11.
At this dilution, the concentration of DMSO is 0.4% for a 2× solution or 0.2% for 1× solution on the cells.
Transfer the 2× starting compound solution to quadruplicate wells in column 12 of the 96-well round bottom plate. […] Transfer 100 μl of compound dilutions onto 100 μl medium on cells in corresponding wells of 96-well flat bottom plate. Total volume per well should be 200 μl.
For vehicle control, prepare a 2× solution of DMSO at 0.4% DMSO in growth medium. […]
Read plates on Dynatech ELISA Plate Reader at 570 nm with reference at 630 nm.
Assay [3] has as its system HUV-EC-C cells (human umbilical vein endothelial cells). Nature of the assay: HUV-EC-C Assay, VEGF-stimulated [3H] thymidine incorporation. In kind it is cell-based. Conditions: Mitogenesis in Endothelial Cells. On the technique in general: Incorporation of labelled thymidine or its analogues reports DNA synthesis.
Assay [4] shares this test system. Nature of the assay: HUV-EC-C Assay, a-FGF (ECGF)-stimulated [3H] thymidine incorporation. In kind it is cell-based. Conditions: Homo sapiens, HUVEC, Mitogenesis in Endothelial Cells. The method, then:
The following protocol may also be used to measure the composition's activity:
1. […] After cells have detached from the flask, add an equal volume of assay medium and transfer to a 50 ml sterile centrifuge tube (Fisher Scientific; catalogue no. 05-539-6).
2. Wash the cells with about 35 ml assay medium in the 50 ml sterile centrifuge, tube by adding the assay medium, centrifuge for 10 minutes at approximately 200× g, aspirate the supernatant, and resuspend with 35 ml D-PBS. Repeat the wash two more times with D-PBS, resuspend the cells in about 1 ml assay medium/15 cm^2 of tissue culture flask. Assay medium consists of F12K medium (Gibco BRL; catalogue no. 21127-014)+0.5% heat-inactivated fetal bovine serum. Count the cells with a Coulter Counter.RTM.v Coulter Electronics, Inc.) and add assay medium to the cells to obtain a concentration of 0.8-1.0×10^5 cells/ml.
3. Add cells to 96-well flat-bottom plates at 100 μl/well or 0.8-1.0×10^4 cells/well; incubate about 24 h at 37° C., 5% CO2.
1. Make up two-fold drug titrations in separate 96-well plates, generally 50 μM on down to 0 μM. Use the same assay medium as mentioned in day 0, step 2 above. Titrations are made by adding […] of drug at 200 μM (4× the final well concentration) to the top well of a particular plate column. Since the stock drug concentration is usually 20 mM in DMSO, the 200 μM drug concentration contains 2% DMSO. Therefore, diluent made up to 2% DMSO in assay medium (F12K+0.5% fetal bovine serum) is used as diluent for the drug titrations in order to dilute the drug but keep the DMSO concentration constant. Add this diluent to the remaining wells in the column at 60 μl/well. Take 60 μl from the 120 μl of 200 μM drug dilution in the top well of the column and mix with the 60 μl in the second well of the column. Take 60 μl from this well and mix with the 60 μl in the third well of the column, and so on until two-fold titrations are completed. When the next-to-the-last well is mixed, take 60 μl of the 120 μl in this well and discard it. Leave the last well with 60 μl of DMSO/media diluent as a non-drug-containing control. Make 9 columns of titrated drug, enough for triplicate wells each for 1) VEGF (obtained from Pepro Tech Inc., catalogue no. 100-200, 2) endothelial cell growth factor (ECGF) (also known as acidic fibroblast growth factor, or aFGF) (obtained from Boehringer Mannheim Biochemica, catalogue no. 1439 600), and assay media control. ECGF comes as a preparation with sodium heparin.
2. Transfer 50 μl/well of the drug dilutions to the 96-well assay plates containing the 0.8-1.0×10^4 cells/100 μl/well of the HUV-EC-C cells from day 0 and […] incubate ~2 h at 37° C., 5% CO2.
3. In triplicate, add 50 μl/well of 80 ng/ml VEGF, 20 ng/ml ECGF, or media control to each drug condition. As with the drugs, the growth factor concentrations are 4× the desired final concentration. Use the assay media from day 0 step 2 to make the concentrations of growth factors. Incubate approximately 24 hours at 37° C., 5% CO2. Each well will have 50 μl drug dilution, 50 μl growth factor or media, and 100 ul cells,=200 ul/well total. Thus the 4× concentrations of drugs and growth factors become 1× once everything has been added to the wells.
1. Add ^3H-thymidine (Amersham; catalogue no. TRK-686) at 1 μCi/well (10 μl/well of 100 μCi/ml solution made up in RPMI media+10% heat-inactivated fetal bovine serum) and incubate about 24 h at 37° C., 5% CO2.
Note: ^3H-thymidine is made up in RPMI media because all of the other applications for which we use the ^3H-thymidine involve experiments done in RPMI. The media difference at this step is probably not significant. RPMI was obtained from Gibco BRL, catalogue no. 11875-051.
1. Freeze plates overnight at −20° C.
1. Thaw plates and harvest with a 96-well plate harvester (Tomtec Harvester 96.RTM.) onto filter mats (Wallac; catalogue no. 1205-401); read counts on a Wallac Betaplate™ liquid scintillation counter.

The next assay has as its system EpH4-VEGF. Nature of the assay: Xenograft Assay 2: FLK-1/Xenograft Model, subcutaneous xenograft (In Vivo Data, EpH4-VEGF). The arrangement: species or system mice. The protocol:
Assay 2: FLK-1/Xenograft Model
The ability of the compounds of the present invention to inhibit ovarian, melanoma, prostate, lung and mammary tumor cell lines established as SC xenografts was examined. These studies were conducted using doses ranging from 1 to 75 mg/kg/day.
Materials And Methods. The tumor cells were implanted subcutaneously into the indicated strains of mice. Treatment was initiated on day 1 post implantation unless otherwise indicated (e.g. treatment of the SCID mouse related to the A375 melanoma cell line began on Day 9). Eight (8) to sixteen (16) mice comprised each test group.
Animals. Female athymic mice (BALB/c, nu/nu), BALB/c mice, Wistar rats and Fisher 344 rats were obtained from Simonsen Laboratories (Gilroy, Calif.). Female A/I mice were obtained from Jackson Laboratory (Bar Harbor, Me.). DA rats were obtained from B&K Universal, Inc. (Fremont, Calif.). Athymic R/Nu rats, DBA/2N mice, and BALB/c mice were obtained from Harlan Sprague Dawley (Indianapolis, Ind.). Female C57BU6 mice were obtained from Taconic (Germantown, N.Y.). All animals were maintained under clean-room conditions in Micro-isolator cages with Alpha-dri bedding. They received sterile rodent chow and water ad libitum.
All procedures were conducted in accordance with the NIH Guide for the Care and Use Of Laboratory Animals.
Subcutaneous Xenograft Model. Cell lines were grown in appropriate medium as described. Cells were harvested at or near confluency with 0.05% Trypsin-EDTA and pelleted at 450×g for 10 min. Pellets were resuspended in sterile PBS or media (without FBS) to a suitable concentration indicated in the Figure legends and the cells were implanted into the hindflank of mice. Tumor growth-was measured over 3 to 6 weeks using venier calipers and tumor volumes were calculated as a product of length x width x height unless otherwise indicated. P values were calculated using the Students' t-test.
Different concentrations of a compound in 50-100 μl excipient (dimethylsulfoxide, PBTE, PBTE6C:D5W, or PBTE:D5W) were delivered by IP injection.
Results for various compounds obtained from the above-described in vivo assays are set forth at Table 5, below: […]

The target in the next assay is T1, PDGFR (Homo sapiens, UniProt P09619).
T1 construct: other: ELISA Assay Results; U1242 cells
T1 sequence (P09619 33-1106): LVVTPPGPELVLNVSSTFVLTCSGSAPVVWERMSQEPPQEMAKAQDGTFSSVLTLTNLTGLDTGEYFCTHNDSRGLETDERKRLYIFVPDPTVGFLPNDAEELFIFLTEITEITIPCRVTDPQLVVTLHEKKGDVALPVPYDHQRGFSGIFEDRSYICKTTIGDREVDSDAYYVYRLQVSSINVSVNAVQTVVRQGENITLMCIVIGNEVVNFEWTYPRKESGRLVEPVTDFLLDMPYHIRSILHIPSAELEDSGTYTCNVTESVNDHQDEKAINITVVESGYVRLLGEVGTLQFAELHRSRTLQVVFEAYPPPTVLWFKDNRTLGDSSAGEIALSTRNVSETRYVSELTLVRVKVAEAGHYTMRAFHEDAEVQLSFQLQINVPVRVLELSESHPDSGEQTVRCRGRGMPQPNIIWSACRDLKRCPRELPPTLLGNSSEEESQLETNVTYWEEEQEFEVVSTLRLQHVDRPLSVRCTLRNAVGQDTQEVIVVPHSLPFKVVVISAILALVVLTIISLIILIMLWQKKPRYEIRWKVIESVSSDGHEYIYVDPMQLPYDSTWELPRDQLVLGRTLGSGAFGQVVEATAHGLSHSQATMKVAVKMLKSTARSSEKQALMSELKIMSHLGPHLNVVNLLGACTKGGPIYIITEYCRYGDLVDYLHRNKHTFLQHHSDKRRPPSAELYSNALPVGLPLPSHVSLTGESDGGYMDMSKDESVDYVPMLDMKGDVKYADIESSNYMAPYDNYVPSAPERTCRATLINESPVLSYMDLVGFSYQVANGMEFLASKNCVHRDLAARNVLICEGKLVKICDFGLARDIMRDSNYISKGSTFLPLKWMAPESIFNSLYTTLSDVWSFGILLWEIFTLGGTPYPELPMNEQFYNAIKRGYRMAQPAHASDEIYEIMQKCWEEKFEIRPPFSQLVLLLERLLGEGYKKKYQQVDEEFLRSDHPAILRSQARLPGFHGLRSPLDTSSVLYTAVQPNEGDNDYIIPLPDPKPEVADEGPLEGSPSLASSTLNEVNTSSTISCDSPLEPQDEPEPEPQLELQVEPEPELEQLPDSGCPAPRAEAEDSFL
Nature of the assay: PDGF-R ELISA (U1242 cells). Conditions: ELISA Assay Results. In kind it is cell-based. On the technique in general: In an ELISA, binding on a coated surface is turned into a signal by an enzyme label.

Another assay concerns the target T2, FLK-1 receptor (Mus musculus, UniProt P35918).
T2 construct: expressed in transfected cells; host or cells: NIH3T3 C7#3 (FLK-1/NIH3T3)
Nature of the assay: FLK-1 ELISA (kinase activity of the FLK-1 receptor in FLK-1/NIH3T3 cells). In kind it is cell-based. The settings on record: ELISA Assay Results, VEGF stimulation.

Another assay concerns the target T3, HER2 kinase (Homo sapiens, UniProt P04626).
T3 construct: fused on or other part: The EGFR extracellular domain serves for EGF stimulation and for capture by mAb 05-101; The HER2 part carries the kinase domain; P00533 (Epidermal growth factor receptor)
Nature of the assay: HER-2 ELISA Assay 1: EGF Receptor-HER2 Chimeric Receptor Assay In Whole Cells. In kind it is cell-based. The settings on record: ELISA Assay Results.

Assay [5] has as its system 3T3/PDGF-βR/PDGF-BB(T) (NIH 3T3 cells expressing PDGFβ-receptor and PDGF-BB). Description: SRB Assay 3: 3T3/PDGF-βR/PDGF-BB(T) Cell Growth SRB Assay. In kind it is cell-based. The settings on record: Mus musculus, NIH3T3, SRB Readout, read-out: 3T3/PDGFR + PDGF (T) IC50. The method, then:
Assay 3: 3T3/PDGF-βR/PDGF-BB(T) Cell Growth SRB Assay
Cell line and growth medium:
3T3/PDGF-βR/PDGF-BB(T) (NIH 3T3 clone 7 cells expressing PDGFβ-receptor and PDGF-BB, from tumors resected from athymic mice) 2% calf serum/DMEM+2 mM glutamine
This part of assay is carried out in a laminar flow hood.
1. Trypsinize cells as usual. Transfer 200 μl of cell suspension to 10 ml of isotone. Count cells on the Coulter Counter.
2. Dilute cells in growth medium to 60,000 cells/ml. Transfer 100 μl of cells to each well in a 96-well flat bottom plate to give 6000 cells/well.
3. Allow half of plate (4 rows) for each compound and quadruplicate wells for each compound concentration, a set of 4 wells for medium control and 4 wells for DMSO control.
4. Gently shake plates to allow for uniform attachment of the cells to the plate.
5. Incubate the plates at 37° C. in a 10% CO2 incubator.
Day 1: Addition of Compound: same as for Assay 1.
Day 5: Development of Assay: same as for Assay 1.
3T3/E/H+TGF-α(T): NIH 3T3 cells expressing EGFR/HER2 chimera and TGF-α, tumor-derived 3T3/EGFR+TGF-α(T): NIH 3T3 cells expressing EGFR and TGF-α, tumor-derived 3T3/PDGFR+PDGF(T): NIH 3T3 cells expressing PDGF-βR and PDGF-ββ, tumor-derived SMC: human smooth muscle cells from Clonetics

Values joined by “and” are separate entries in the source; they are usually repeats but may differ in a detail not shown here. Equal entries are not always repeated.

T3 sequence (P04626 720-987 limits assumed): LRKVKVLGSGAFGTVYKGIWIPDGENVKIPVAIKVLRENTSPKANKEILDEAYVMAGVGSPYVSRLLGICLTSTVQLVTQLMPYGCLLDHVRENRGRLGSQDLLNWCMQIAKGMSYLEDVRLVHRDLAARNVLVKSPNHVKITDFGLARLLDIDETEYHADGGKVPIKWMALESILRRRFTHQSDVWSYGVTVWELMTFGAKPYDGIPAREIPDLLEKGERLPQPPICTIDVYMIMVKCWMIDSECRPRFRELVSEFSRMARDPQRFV
T2 sequence (P35918 20-1345): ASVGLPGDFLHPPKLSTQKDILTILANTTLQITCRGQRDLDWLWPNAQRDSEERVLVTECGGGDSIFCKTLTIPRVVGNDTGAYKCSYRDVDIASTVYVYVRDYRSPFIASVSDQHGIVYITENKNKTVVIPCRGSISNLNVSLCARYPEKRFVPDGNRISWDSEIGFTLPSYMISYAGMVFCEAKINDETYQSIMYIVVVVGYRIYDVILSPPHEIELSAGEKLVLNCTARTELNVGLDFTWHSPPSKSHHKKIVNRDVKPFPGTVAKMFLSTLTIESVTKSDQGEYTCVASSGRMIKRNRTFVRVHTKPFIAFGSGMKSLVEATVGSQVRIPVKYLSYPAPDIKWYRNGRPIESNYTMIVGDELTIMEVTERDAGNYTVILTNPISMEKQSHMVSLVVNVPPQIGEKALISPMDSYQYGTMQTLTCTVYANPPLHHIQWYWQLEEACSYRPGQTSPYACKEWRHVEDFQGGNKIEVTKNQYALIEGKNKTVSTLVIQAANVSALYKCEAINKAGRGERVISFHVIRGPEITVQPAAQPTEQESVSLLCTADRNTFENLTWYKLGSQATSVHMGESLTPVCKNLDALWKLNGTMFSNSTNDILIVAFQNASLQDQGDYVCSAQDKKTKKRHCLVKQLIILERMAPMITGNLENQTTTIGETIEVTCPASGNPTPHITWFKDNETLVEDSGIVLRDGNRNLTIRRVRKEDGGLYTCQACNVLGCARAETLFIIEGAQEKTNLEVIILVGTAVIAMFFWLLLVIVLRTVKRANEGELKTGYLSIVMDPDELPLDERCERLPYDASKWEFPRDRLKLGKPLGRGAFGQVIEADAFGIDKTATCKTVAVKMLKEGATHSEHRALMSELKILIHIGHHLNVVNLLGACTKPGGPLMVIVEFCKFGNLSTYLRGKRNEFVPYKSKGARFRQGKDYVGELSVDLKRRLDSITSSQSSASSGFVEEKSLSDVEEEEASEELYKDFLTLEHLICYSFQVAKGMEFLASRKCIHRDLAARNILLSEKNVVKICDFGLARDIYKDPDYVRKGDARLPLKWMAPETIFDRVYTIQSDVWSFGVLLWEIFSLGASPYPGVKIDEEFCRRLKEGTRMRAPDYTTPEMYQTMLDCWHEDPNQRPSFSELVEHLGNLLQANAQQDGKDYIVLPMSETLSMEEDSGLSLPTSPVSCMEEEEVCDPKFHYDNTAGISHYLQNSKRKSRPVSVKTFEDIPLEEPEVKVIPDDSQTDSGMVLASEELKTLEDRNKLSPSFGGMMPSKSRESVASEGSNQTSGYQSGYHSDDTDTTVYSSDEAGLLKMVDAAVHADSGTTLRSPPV
Protocol for FLK-1 receptor: An ELISA assay was conducted to measure the kinase activity of the FLK-1 receptor and more specifically, the inhibition or activation of protein tyrosine kinase activity on the FLK-1 receptor. Specifically, the following assay was conducted to measure kinase activity of the FLK-1 receptor in FLK-1/NIH3T3 cells.
The following reagents and supplies were used:
PBS (Gibco Catalog No. 450-1300EB);
Ethanolamine stock (10% ethanolamine (pH 7.0), stored at 4° C.);
HNTG buffer (20 mM HEPES buffer (pH 7.5),150 mM NaCl, 0.2% Triton X-100, and 10% glycerol);
EDTA (0.5M (pH 7.0) as a 100× stock);
Sodium ortho vanadate (0.5M as a 100× stock);
Sodium pyro phosphate (0.2M as a 100× stock);
NIH3T3 C7#3 Cells (FLK-1 expressing cells);
VEGF, PeproTech, Inc. (catalog no. 100-20)(kept as 1 μg/100 til stock in Milli-Q dH2O and stored at −20° C. Affinity purified anti-FLK-1 antiserum, Enzymology Lab, Sugen, Inc.;
H2 02 (30% solution) (Fisher catalog no. H325);
Protocol. The following protocol was used for conducting the assay:
Coat Corning 96-well elisa plates with 1.0 μg per well Cappel Anti-rabbit IgG antibody in 0.1M Na2 CO3 pH 9.6. Bring final volume to 150 μl per well. Coat plates overnight at 4° C. Plates can be kept up to two weeks when stored at 4° C.
Grow cells in Growth media(DMEM, supplemental with 2.0 mM L-Glutamine, 10% FBS) in suitable culture dishes until confluent at 37° C., 5% CO2. […]
Protocol for HER2 kinase: Assay 1 EGF Receptor-HER2 Chimeric Receptor Assay In Whole Cells. HER2 kinase activity in hole EGFR-NIH3T3 cells was measured as described below:
Materials and Reagents. The following materials and reagents were used to conduct the assay:
Anti-phosphotyrosine antibody (anti-Ptyr) (polyclonal)(see, Fendley, et al., supra).
Detection antibody: Goat anti-rabbit IgG horse radish peroxidase conjugate, TAGO, Inc., Burlingame, Calif.
Procedure. The following protocol was used:
Coated plates are good for up to 10 days when stored at 4° C.
On day of use, remove coating buffer and replace with 100 μl blocking buffer (5% Carnation Instant Non-Fat Dry Milk in PBS). Incubate the plate, shaking, at room temperature (about 23° C. to 25° C.) for 30 minutes. Just prior to use, remove blocking buffer and wash plate 4 times with TBST buffer.
An NIH3T3 cell line overexpressing a chimeric receptor containing the EGFR extracellular domain and extracellular HER2 kinase domain can be used for this assay.
Choose dishes having 80-90% confluence for the experiment. Trypsinize cells and stop reaction by adding 10% fetal bovine serum. Suspend cells in DMEM medium (10% CS DMEM medium) and centrifuge once at 1500 rpm, at room temperature for 5 minutes.
Resuspend cells in seeding medium (DMEM, 0.5% bovine serum), and count the cells using trypan blue. Viability above 90% is acceptable. Seed cells in DMEM medium (0.5% bovine serum) at a density of 10,000 cells per well, 100 μL per well, in a 96 well microtiter plate. Incubate seeded cells in 5% CO2 at 37° C. for about 40 hours.
Check seeded cells for contamination using an inverted microscope. Dilute drug stock (10 mg/ml in DMSO) 1:10 in DMEM medium, then transfer 51 to a TBST well for a final drug dilution of 1:200 and a final DMSO concentration of 1%. Control wells receive DMSO alone. Incubate in 5% CO2 at 37° C. for two hours.
Prepare EGF ligand: dilute stock EGF in DMEM so that upon transfer of 10 μl dilute EGF (1:12 dilution), 100 nM final concentration is attained.
Prepare fresh HNTG* sufficient for 100 μl per well; and place on ice.
After 120 minutes incubation with drug, add prepared SGF ligand to cells, 10 μl per well, to a final concentration of 100 nM. Control wells receive DMEM alone. Incubate, shaking, at room temperature, for 5 minutes.
Remove drug, EGF, and DMEM. Wash cells twice with PBS. Transfer HNTG* to cells, 100 μl per well. Place on ice for 5 minutes. Meanwhile, remove blocking buffer from other ELISA plate and wash with TBST as described above.
With a pipette tip securely fitted to a micropipettor, scrape cells from plate and homogenize cell material by repeatedly aspirating and dispensing the HNTG* lysis buffer. Transfer lysate to a coated, blocked, and washed ELISA plate. Incubate shaking at room temperature for one hour.
Remove lysate and wash 4 times with TBST. Transfer freshly diluted anti-Ptyr antibody to ELISA plate at 100 μl per well. Incubate shaking at room temperature for 30 minutes in the presence of the anti-Ptyr antiserum (1:3000 dilution in TBST).
Remove the anti-Ptyr antibody and wash 4 times with TBST. Transfer the freshly diluted TAGO anti-rabbit IgG antibody to the ELISA plate at 100 μl per well., Incubate shaking at room temperature for 30 minutes (anti-rabbit IgG antibody: 1:3000 dilution in TBST).
Remove TAGO detection antibody and wash 4 times with TBST. Transfer freshly prepared ABTS/H2O2 solution to ELISA plate, 100 μl per well. Incubate shaking at room temperature for 20 minutes. (ABTS/H2O2 solution: 1.0 μl 30% H2O2 in 10 ml ABTS stock).
Stop reaction by adding 50 μl 5N H2 SO4 (optional), and determine O.D. at 410 nm.
The maximal phosphotyrosine signal is determined by subtracting the value of the negative controls from the positive controls. The percent inhibition of phosphotyrosine content for extract-containing wells is then calculated, after subtraction of the negative controls.
Protocol for PDGFR: All cell culture media, glutamine, and fetal bovine serum were purchased from Gibco Life Technologies (Grand Island, N.Y.) unless otherwise specified. […] All cell lines were routinely subcultured twice a week and were negative for mycoplasma as determined by the Mycotect method (Gibco).
For ELISA assays, cells (U1242, obtained from Joseph Schlessinger, NYU) were grown to 80-90% confluency in growth medium (MEM with 10% FBS, NEAA, 1 mM NaPyr and 2 mM GLN) and seeded in 96-well tissue culture plates in 0.5% serum at 25,000 to 30,000 cells per well. […] Lysates were incubated with shaking for 1 hour at room temperature. The plates were washed with TBST four times and then incubated with polyclonal anti-phosphotyrosine antibody at room temperature for 30 minutes. Excess anti-phosphotyrosine antibody was removed by rinsing the plate with TBST four times. Goat anti-rabbit IgG antibody was added to the ELISA plate for 30 min at room temperature followed by rinsing with TBST four more times. […] Absorbance at 410 nm with a reference wavelength of 630 nm was recorded about 15 to 30 min after ABTS addition.

Turning to `Cc1ccc(-c2cc(C(F)(F)F)nn2-c2ccc(S(N)(=O)=O)cc2)cc1` [Celecoxib, celecoxib], the “inhibition of fibroblast growth factor-induced corneal angiogenesis” value in [1] is given as “potent inhibition”.

As to `CN(C)c1ccc(C=C2C(=O)Nc3ccccc32)cc1` [SU4312, 3-(4-Dimethylaminobenzylidenyl)-2-indolinone], the IC50 in assay [2] stood at 36 µM; in assay [3] (Homo sapiens, HUVEC), 1.1 µM; in assay [4], 154 µM. For the same compound, the “EpH4-VEGF % inhibition @ mg/kg” value in the assay on EpH4-VEGF (@ 50 mg/kg) is 63% @ 50; in the assay on EpH4-VEGF (@ 75 mg/kg) it was 56% @ 75 and 50% @ 75.

With `COc1ccc(OC)c(C=C2C(=O)Nc3ccccc32)c1` [SU4793, 3-(2,5-Dimethoxybenzylidenyl)-2-indolinone], the IC50 came out at 87.4 µM at PDGFR; 6.6 µM in assay [3] (Homo sapiens, HUVEC); 3.4 µM in [4].

On to `CC(=O)Nc1ccc(C=C2C(=O)Nc3ccccc32)cc1` [SU4944, 3-(4-Acetylaminobenzylidenyl)-2-indolinone], for which the IC50 at FLK-1 receptor was determined as 8.5 µM; in assay [3] it was 14.8 µM.

With `CN1C(=O)C(=Cc2ccc(Br)cc2)c2ccccc21` [SU4956, 3-(4-Bromobenzylidenyl)-1-methyl-2-indolinone], the IC50 against HER2 kinase amounted to 22.5 µM; in assay [3] (Homo sapiens, HUVEC) it was 8 µM; in assay [4], 13 µM.

As to `CN1C(=O)C(=Cc2ccc(N3CCOCC3)cc2)c2ccccc21` [SU4982, 1-Methyl-3-[4-(morpholin-4-yl)benzylidenyl]-2-indolinone], the IC50 came out at 39.4 µM against HER2 kinase; 46.1 µM in assay [3] (Homo sapiens, HUVEC); 27.3 µM in assay [4].

In the case of `O=CN1CCN(c2ccc(C=C3C(=O)Nc4ccccc43)cc2)CC1` [SU4984, 3-[4-(4-Formylpiperazin-1-yl)benzylidenyl]-2-indolinone], the IC50 on FLK-1 receptor was 1.6 µM; on HER2 kinase, 90.2 µM; in [5], 22.2 µM; in assay [3] (Homo sapiens, HUVEC), 0.8 µM; in assay [4] it was 25.8 µM.

For `CCOc1ccccc1C=C1C(=O)Nc2ccccc21` [SU5204, 3-(2-Ethoxybenzylidenyl]-2-indolinone], the IC50 against HER2 kinase was 51.5 µM; in [3] (Homo sapiens, HUVEC), 2.3 µM; in assay [4], 0.7 µM.

Turning to `Cc1ccsc1C=C1C(=O)Nc2ccccc21` [SU5427, 3-[(3-Methylthien-2-yl)methylene]-2-indolinone], the IC50 against HER2 kinase stood at 70.6 µM; in assay [3] (Homo sapiens, HUVEC), 5.7 µM. In the assay on EpH4-VEGF (@ 50 mg/kg), the “EpH4-VEGF % inhibition @ mg/kg” value is 47% @ 50 and 65% @ 50.

In the case of `COc1ccc(C=C2C(=O)Nc3ccccc32)c(Cl)c1` [SU5480, 3-[2-Chloro-4-methoxybenzylidenyl]-2-indolinone], the IC50 against HER2 kinase was 30.4 µM; in assay [3] (Homo sapiens, HUVEC) it was 1.2 µM; in [4], 3.8 µM.

Values taken from patent US20030119895A1, “Methods using a combination of a 3-heteroaryl-2-indolinone and a cyclooxygenase-2 inhibitor for the treatment of neoplasia” (Pharmacia Corporation, priority 1998, published 2003).
